Data from ChEMBL document CHEMBL1201862, “PubChem BioAssay data set” (2004).
Active and inactive are the calls of the source. Cut-off read from the data, not from the text of the source, for most assays here: actives have a measured EC50 and inactives only a lower limit.

Experiments:
[1] = target: Cytochrome P450 2C9 (Homo sapiens, UniProt P11712)
[2] = target: T1, Heat shock factor protein 1 (Mus musculus, UniProt P38532); assay: inhibition of MG132-induced HSE-luciferase signal, confirmation, cell-based, NIH3T3, luminescence, dose retest (AID 2382); assay type: functional;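 note: NIH3T3 fibroblasts with HSF1-driven luciferase reporter stressed by proteasome inhibitor MG132; luminescence from HSF1-driven luciferase expression after 8 hours of MG132 stress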
T1 sequence (P38532 whole entry): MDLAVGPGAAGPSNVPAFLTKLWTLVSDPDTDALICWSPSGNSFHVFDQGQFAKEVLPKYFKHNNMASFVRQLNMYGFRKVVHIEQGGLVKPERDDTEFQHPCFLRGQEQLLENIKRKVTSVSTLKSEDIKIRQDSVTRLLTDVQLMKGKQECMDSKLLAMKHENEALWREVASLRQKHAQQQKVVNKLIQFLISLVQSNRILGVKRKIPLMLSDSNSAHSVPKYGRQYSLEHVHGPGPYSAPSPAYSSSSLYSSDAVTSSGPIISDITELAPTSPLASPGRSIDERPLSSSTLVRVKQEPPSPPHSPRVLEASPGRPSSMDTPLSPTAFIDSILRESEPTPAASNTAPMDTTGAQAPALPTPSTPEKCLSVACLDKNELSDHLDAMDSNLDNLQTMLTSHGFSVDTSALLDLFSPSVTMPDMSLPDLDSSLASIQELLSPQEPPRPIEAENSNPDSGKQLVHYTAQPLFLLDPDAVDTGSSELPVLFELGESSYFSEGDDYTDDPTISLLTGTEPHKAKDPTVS

[3] = inhibitors of firefly luciferase expression or activity, dose response, H4 neuroglioma cells, luminescence (AID 1990); assay type: functional, cell-based
[4] = Luminescence Cell-Based Dose Response HTS to Identify Inhibitors of 5'UTR Stem-Loop Driven Prion Protein mRNA Translation in H4 Neuroglioblastoma Cells. [Related pubchem assays: 1827 (Project Summary), 1813 (Primary HTS)]; assay type: functional
[5] = inhibitors of SNCA 5'UTR-driven reporter translation, confirmation, H4 neuroglioma cells, luminescence (AID 1988); assay type: functional, cell-based
[6] = system: INS1; assay: beta cell apoptosis inhibitors, cytokine rescue, dose response, luminescence, retest (AID 449756); assay type: functional, cell-based; conditions: Rattus norvegicus;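 note: cell death triggered by IL-1 beta plus TNF-alpha plus IFN-gamma mixture; protective hits raise ATP signal compared with cytokine alone wells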
[7] = inhibitors of intracellular T. cruzi replication, confirmation, NIH3T3 host cells, beta-gal luminescence (AID 2044); assay type: functional, cell-based;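 note: intracellular parasites grown in NIH/3T3 mouse fibroblasts as host cells; luminescent beta-galactosidase reporter signal from transgenic T. cruzi replicating inside host cells; inhibitors lower the luminescence signal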
[8] = cytotoxicity toward NIH3T3 fibroblasts, dose response, counter-screen, cell-based, ATP luminescence, mouse fibroblasts (AID 2010); assay type: functional;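 note: cells exposed to compound for about 90 hours before reading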
[9] = Luminescence Cell-Based Dose Retest to Confirm Inhibitors of Cancer Stem Cells. [Related pubchem assays (depositor defined):AID2717, AID2721]; assay type: functional; conditions: Homo sapiens
[10] = target: Cytochrome P450 3A4 (Homo sapiens, UniProt P08684);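 note: CYP3A4 tested as one member of a cytochrome P450 panel screen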
[11] = system: Streptococcus sp. 'group A'; assay: growth inhibition of control SK(-) GAS strain, dose response, counter-screen for streptokinase expression inhibitor project, luminescence, kanamycin, BacTiterGlo, confirmation (AID 1900); assay type: functional, organism-based
[12] = system: Streptococcus; assay: Group A Streptococcus viability loss, dose response, counter-screen for streptokinase expression inhibitor project, luminescence, BacTiterGlo (AID 1915); assay type: functional, organism-based;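 note: potency for reduction of bacterial viability or growth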

Cytochrome P450 3A4, sequence (P08684 whole entry): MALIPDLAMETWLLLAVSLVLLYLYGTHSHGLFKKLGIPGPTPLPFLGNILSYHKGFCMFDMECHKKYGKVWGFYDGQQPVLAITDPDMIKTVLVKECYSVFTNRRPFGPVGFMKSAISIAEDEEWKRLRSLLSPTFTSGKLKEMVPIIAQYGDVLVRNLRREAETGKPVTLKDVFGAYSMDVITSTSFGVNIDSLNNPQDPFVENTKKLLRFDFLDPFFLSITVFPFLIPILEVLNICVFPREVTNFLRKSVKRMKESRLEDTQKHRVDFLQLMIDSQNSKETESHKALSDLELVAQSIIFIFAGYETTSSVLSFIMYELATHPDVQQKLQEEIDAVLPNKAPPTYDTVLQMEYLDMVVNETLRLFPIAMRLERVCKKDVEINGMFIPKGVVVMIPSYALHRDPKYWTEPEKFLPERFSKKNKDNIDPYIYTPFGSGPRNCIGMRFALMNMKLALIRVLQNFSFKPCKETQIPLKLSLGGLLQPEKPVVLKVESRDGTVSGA
Cytochrome P450 2C9, sequence (P11712 whole entry): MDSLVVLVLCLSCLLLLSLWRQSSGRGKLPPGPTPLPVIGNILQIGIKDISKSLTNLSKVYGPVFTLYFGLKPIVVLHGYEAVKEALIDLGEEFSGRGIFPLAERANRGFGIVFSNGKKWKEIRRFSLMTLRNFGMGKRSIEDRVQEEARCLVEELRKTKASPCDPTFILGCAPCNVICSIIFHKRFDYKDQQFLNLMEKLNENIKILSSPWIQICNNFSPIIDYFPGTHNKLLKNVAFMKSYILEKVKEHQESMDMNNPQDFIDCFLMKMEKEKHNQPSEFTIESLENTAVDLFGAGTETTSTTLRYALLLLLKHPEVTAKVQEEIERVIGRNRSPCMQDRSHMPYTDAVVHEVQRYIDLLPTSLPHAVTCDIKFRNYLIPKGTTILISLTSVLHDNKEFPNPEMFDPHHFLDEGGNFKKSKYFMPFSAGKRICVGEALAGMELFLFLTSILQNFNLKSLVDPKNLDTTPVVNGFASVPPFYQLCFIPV

For `COc1cccc(-c2cc(NCCc3c[nH]c4ccc(OC)cc34)ncn2)c1`, the AC50 [1] was 1.58 µM (inconclusive).

For `COC(=O)N/N=C/c1ccc(/C=N/NC(=O)OC)cc1`, the EC50 [2] was > 195 µM (not active).

In the case of `N#Cc1c(N2CCOCC2)nc(-c2ccco2)c2c1CCCC2`, the EC50 [3] is reported as 21.5 µM (active), the EC50 [4] is reported as 18.5 µM (active) and the EC50 [5] is reported as > 120 µM (not active).

In the case of `Cn1c(NCc2cccnc2)nc2c1c(=O)n(Cc1ccccc1F)c(=O)n2C`, the EC50 [3] is reported as 18.5 µM (active), the EC50 [4] is reported as > 120 µM (not active) and the EC50 [5] is reported as > 120 µM (not active).

In the case of `CCCCN(C)CCNC(=O)c1cc2c(-c3ccccc3F)nn(C)c2s1`, the EC50 [2] is reported as > 195 µM (not active) and the AC50 [6] is reported as > 260 µM (inactive).

With `COc1cc(CNCCN2CCOCC2)ccc1OCc1ccccc1Cl` the AC50 [1] was 7.94 µM (inconclusive).

With `O=C(NCCS(=O)(=O)N1CCN(c2ccc(F)cc2)CC1)c1ccc(Br)o1` the EC50 [3] was > 120 µM (not active), the EC50 [4] was > 120 µM (not active) and the EC50 [5] was > 120 µM (not active).

With `O=C(c1nn2c(C(F)(F)F)cc(-c3ccco3)nc2c1Br)N1CCCc2ccccc21` the EC50 [3] was 8.31 µM (active), the EC50 [4] was 13.8 µM (active) and the EC50 [5] was 10.2 µM (active).

With `Cc1cccc(Nc2c([N+](=O)[O-])cc(C(=O)N3CC(=O)Nc4ccccc43)cc2[N+](=O)[O-])c1` the EC50 [7] was 0.518 µM (active) and the EC50 [8] was > 60 µM (not active).

In the case of `Cc1ccc(C)c(NC(=O)c2ccccc2NS(=O)(=O)c2cc([N+](=O)[O-])ccc2C)c1`, the AC50 [9] is reported as 1.19 µM (active) and the AC50 [6] is reported as 3.76 µM (active).

In the case of `CCn1c(C)c(C)c2cc(C(=O)N3CCN(c4cccc(C)c4C)CC3)ccc21`, the AC50 [9] is reported as 4.18 µM (active).

In the case of `CCCCn1c(C2CCCCC2)nc2cc3nc(O)c(C(C)C)nc3cc21`, the AC50 [9] is reported as 1.23 µM (active).

With `Cn1c(-c2ccsc2)c(-c2cccs2)c2cc(Br)ccc21` the AC50 [9] was 3.15 µM (active).

With `CCOC(=O)Cc1csc(NC(=O)c2c(O)c3ccccc3n(CC(C)C)c2=O)n1` the EC50 [3] was > 120 µM (not active), the EC50 [4] was > 120 µM (not active) and the EC50 [5] was 11.1 µM (active).

In the case of `CC/C(NNc1ccccc1)=C1/C(=O)NC(=O)N(c2ccccc2)C1=O`, the AC50 [9] is reported as 0.828 µM (active).

For `O=C1C2CCCN2C(c2ccc(F)cc2)N1c1nccs1` (stereo not drawn), the AC50 [10] was 22.4 µM (inconclusive) and the AC50 [1] was 35.5 µM (inconclusive).

For `CN(Cc1ccccc1)CC(O)COc1ccc(CNCCc2ccncc2)cc1` (stereo not drawn), the EC50 [7] was 0.9 µM (active) and the EC50 [8] was > 60 µM (not active).

For `Cc1ccc(Cl)cc1N=C(S)N(Cc1cccnc1)Cc1ccccc1Cl`, the EC50 [7] was 0.554 µM (active) and the EC50 [8] was > 60 µM (not active).

For `c1ccc(Cn2c[n+](Cc3ccccc3)cn2)cc1`, the EC50 [2] was > 195 µM (not active).

For `CC(C)C(NC(=O)C12CC3CC(CC(C3)C1)C2)C(=O)N/N=C/C1=C(N2CCOCC2)C(=C\c2cccc([N+](=O)[O-])c2)/CC1` (stereo not drawn), the EC50 [7] was 2.16 µM (active) and the EC50 [8] was > 60 µM (not active).

In the case of `C=C(C)COc1ccc2c(c1)CCC1C2CC[C@]2(C)C(=O)/C(=N/O)CC12` (stereo partly drawn), the AC50 [1] is reported as 3.16 µM (inconclusive).

With `O=C(N1CCCCC1)N1CCN(S(=O)(=O)c2ccccc2)CC1` the EC50 [2] was 32.8 µM (active).

With `CCOc1ccc(-c2cc(CCCC(=O)N3CCN(c4ccc(OC)cc4)CC3)no2)cc1` the EC50 [3] was > 120 µM (not active), the EC50 [4] was > 120 µM (not active) and the EC50 [5] was 28.1 µM (active).

In the case of `C/C(=N/Cc1cccc(Cl)c1)c1nc(-c2ccco2)oc1O`, the AC50 [9] is reported as 1.08 µM (active).

With `O=C(Nc1cccnc1Cl)c1cc([N+](=O)[O-])ccc1Cl` the EC50 [7] was > 60 µM (not active) and the EC50 [8] was > 60 µM (not active).

With `Cn1ccnc1C1CCCCN1C(=O)c1cc(COc2ccc(F)cc2Cl)on1` (stereo not drawn) the EC50 [2] was > 195 µM (not active).

With `COc1cccc2s/c(=N/C(=O)CS(=O)(=O)c3ccc(F)cc3)n(C)c12` the EC50 [7] was 1.2 µM (active) and the EC50 [8] was > 60 µM (not active).

With `COc1ccc(N(CC(=O)NC2CCCCCCC2)S(=O)(=O)c2c(C)nn(C)c2C)cc1` the EC50 [2] was > 195 µM (not active).

For `CCCn1c2c(c(O)c(C(=O)NCc3ccccc3)c1=O)CCCC2`, the AC50 [1] was 20 µM (inconclusive).

With `CCOc1ccc(-n2nc3ccc(NC(=O)c4ccc5c(c4)OCCO5)cc3n2)cc1` the EC50 [3] was > 120 µM (not active), the EC50 [4] was 72.6 µM (active) and the EC50 [5] was 12.7 µM (active).

For `COCCCN=C(S)NN=C(S)Nc1cccc(Cl)c1`, the EC50 [11] was > 150 µM (not active) and the EC50 [12] was > 150 µM (not active).

In the case of `CC(=O)NC(=S)Nc1cccc(S(=O)(=O)NC2=NCCC2)c1`, the EC50 [2] is reported as > 195 µM (not active).

For `O=C(c1ccccc1)c1cc(F)c(N2CCOCC2)cc1Cl`, the AC50 [10] was 17.8 µM (inconclusive).

For `Cc1cc(C)c2nc(C(F)(F)F)c(C#N)c(N)c2c1`, the EC50 [2] was 3.15 µM (active).

In the case of `CC(C)c1nc(N2CCOCC2)c(C#N)c2c1COC(C)(C)C2`, the EC50 [3] is reported as 33.6 µM (active), the EC50 [4] is reported as > 120 µM (not active) and the EC50 [5] is reported as > 120 µM (not active).

In the case of `COc1ccc([C@@H]2[C@@H]3C(=O)N(C(C)(C)C)C(=O)[C@@H]3[C@]3(C)C(=O)N(c4cccc(F)c4)C(=O)N23)cc1`, the EC50 [3] is reported as > 120 µM (not active), the EC50 [4] is reported as > 120 µM (not active) and the EC50 [5] is reported as > 120 µM (not active).

In the case of `Clc1ccccc1N1CCN(Cc2c[nH]c3ccccc23)CC1`, the EC50 [7] is reported as 1.43 µM (active) and the EC50 [8] is reported as > 60 µM (not active).

For `CCOCC(=O)Nc1cc(C(=O)Nc2cccc(C)c2C)ccc1Cl`, the AC50 [10] was 25.1 µM (inconclusive).

With `Cc1ccc(-n2nc(C)c3c(C)c(CCC(=O)NCC4CCCO4)c(=O)n(C)c32)cc1` (stereo not drawn) the EC50 [7] was 5.19 µM (active) and the EC50 [8] was > 60 µM (not active).

For `CCC(C)(C)n1nnnc1C(c1cc2ccc(OC)cc2nc1O)N1CCc2ccccc2C1` (stereo not drawn), the EC50 [7] was 1.91 µM (active) and the EC50 [8] was 4.98 µM (active).

With `CC/C(NNc1ccccc1)=C1/C(=O)NC(=O)N(c2ccc(OC)cc2)C1=O` the AC50 [9] was 0.769 µM (active).

With `CC(=O)c1cccc(/N=c2\scc(-c3ccc(S(=O)(=O)N4CCOCC4)cc3)n2CCO)c1` the AC50 [6] was 2.5 µM (active).

In the case of `Cc1cc(C)n(-c2ccc(NC(=O)C3CCCCN3C(=O)c3ccoc3C)cc2)n1` (stereo not drawn), the EC50 [2] is reported as > 195 µM (not active).

In the case of `Cc1noc(C)c1C(=O)N1CCC(C(=O)c2ccccc2)CC1`, the EC50 [2] is reported as > 195 µM (not active).

For `O=C(CCNC(=O)c1ccccc1Cl)Nc1nc(-c2ccc3ccccc3c2)cs1`, the EC50 [7] was 2.02 µM (active) and the EC50 [8] was > 60 µM (not active).

For `Nc1nnc(SCCOc2cccc(Br)c2)s1`, the AC50 [1] was 15.8 µM (inconclusive).

In the case of `CN1CCN(NC(=O)c2ccc(S(=O)(=O)N3CCCCCC3)cc2)CC1`, the EC50 [7] is reported as 0.247 µM (active) and the EC50 [8] is reported as > 60 µM (not active).

In the case of `Cc1ccc(NCc2ccc(C)s2)cc1`, the EC50 [7] is reported as 2.13 µM (active) and the EC50 [8] is reported as > 60 µM (not active).

For `CS(=O)(=O)n1nc(-c2cccnc2)nc1NCc1ccccc1`, the EC50 [3] was > 120 µM (not active), the EC50 [4] was > 120 µM (not active) and the EC50 [5] was > 120 µM (not active).

With `COc1ccc2nc(NC(=O)c3cccc(-c4cc5ccccc5oc4=O)c3)sc2c1` the AC50 [9] was 6.73 µM (active).

With `Cc1ccc(S(=O)(=O)N2CCC(C(=O)N[C@@H](Cc3ccccc3)C(=O)O)CC2)cc1` the EC50 [2] was > 195 µM (not active).

In the case of `COc1ccc(OC)c(NC(=O)CSc2nnc(-c3cccnc3)s2)c1`, the AC50 [6] is reported as 3.66 µM (active).

For `O=C(CSc1nc2ccccc2n1S(=O)(=O)c1ccccc1)N1CCCCC1`, the EC50 [2] was > 195 µM (not active).

For `CN(C)Cc1ccccc1-c1ccc2ncnc(N(C)Cc3ccco3)c2c1`, the AC50 [10] was 15.8 µM (inconclusive).

For `O=C(CC12CC3CC(CC(C3)C1)C2)NC(=S)Nc1ccc(CN2CCOCC2)cc1`, the EC50 [7] was 1.51 µM (active) and the EC50 [8] was 9.26 µM (active).

In the case of `O=C(C1=C[C@H](c2ccc(C(F)(F)F)cc2)C[C@H](OCCCCO)O1)N1CCN(Cc2ccc3c(c2)OCO3)CC1`, the EC50 [2] is reported as > 195 µM (not active).
